Test results as given in ChEMBL document CHEMBL5113368, “Meroterpenoids produced by fungi: Occurrence, structural diversity, biological activities, and their molecular targets” (Eur J Med Chem, 2021).
Converted amounts (≈) assume the structure as drawn.

Experiments:
[1] = Cytotoxicity against human Caco-2 cells assessed as cell growth inhibition measured after 24 hrs by MTT assay; assay type: toxicity, cell-based
[2] = tested on: THP-1; assay: Cytotoxicity against human THP-1 cells assessed as cell growth inhibition measured after 24 hrs by MTT assay; assay type: functional, cell-based; details: THP-1, 24 h
[3] = tested on: HL-60; assay: Cytotoxicity against human HL-60 cells assessed as cell growth inhibition measured after 24 hrs by MTT assay; assay type: functional, cell-based; details: HL-60, 24 h
[4] = tested on: Bipolaris oryzae; assay: Antifungal activity against Cochliobolus miyabeanus assessed as fungal growth inhibition measured after 24 hrs by microscopic analysis; assay type: functional, organism-based
[5] = tested on: Hepatitis C virus; assay: Antiviral activity against Hepatitis C virus infected in human Huh7.5 cells assessed as inhibition of viral replication; assay type: functional, organism-based, Hepacivirus hominis
[6] = tested on: Candida albicans; assay: Antifungal activity against Candida albicans assessed as fungal growth inhibition incubated for 24 hrs by absorbance based analysis; assay type: functional
[7] = tested on: Colletotrichum acutatum; assay: Antifungal activity against Colletotrichum acutatum assessed as fungal growth inhibition by modified broth dilution; assay type: functional
[8] = tested on: Fusarium graminearum; assay: Antifungal activity against Fusarium graminearum assessed as fungal growth inhibition by modified broth dilution; assay type: functional
[9] = tested on: Botrytis cinerea; assay: Antifungal activity against Botrytis cinerea assessed as fungal growth inhibition by modified broth dilution; assay type: functional
[10] = tested on: Phytophthora nicotianae; assay: Antifungal activity against Phytophthora parasitica assessed as fungal growth inhibition by modified broth dilution; assay type: functional
[11] = tested on: Verticillium dahliae; assay: Antifungal activity against Verticillium dahliae assessed as fungal growth inhibition by modified broth dilution; assay type: functional
[12] = tested on: Sclerotinia sclerotiorum; assay: Antifungal activity against Sclerotinia sclerotiorum assessed as fungal growth inhibition by modified broth dilution; assay type: functional
[13] = tested on: Bipolaris maydis; assay: Antifungal activity against Bipolaris maydis assessed as fungal growth inhibition by modified broth dilution; assay type: functional
[14] = tested on: Vibrio parahaemolyticus; assay: Antibacterial activity against Vibrio parahaemolyticus assessed as bacterial growth inhibition incubated for 24 hrs by absorbance based analysis; assay type: functional
[15] = tested on: Vibrio alginolyticus; assay: Antibacterial activity against Vibrio alginolyticus assessed as bacterial growth inhibition incubated for 24 hrs by absorbance based analysis; assay type: functional
[16] = tested on: Vibrio anguillarum; assay: Antibacterial activity against Vibrio anguillarum assessed as bacterial growth inhibition incubated for 24 hrs by absorbance based analysis; assay type: functional

Which results are given for C=C1[C@@]2(C)C[C@H]3[C@@]4(C)C(=CC[C@]3(C)[C@]1(C(=O)OC)C(=O)[C@@](C)(O)C2=O)C(C)(C)C(=O)C[C@H]4O [BERKELEYTRIONE]?
IC50 at 24 h [1]: 10.5 µM; IC50 [2]: 4.3 µM; IC50 [3]: 3.4 µM

With C/C=C(\C)C(=O)[C@H](C)C1=CC(=O)C2=C(O[C@@]3(C)CC[C@H]4OC(C(C)(C)O)CC[C@]4(C)[C@H]3C2)C1=O (stereo partly specified) as the compound, how does the IC50 [4] read?
The IC50 was 0.1 µg/mL (≈ 0.212 µM).

Which IC50 [5] does the source give for CC1=C(O)C(=O)[C@@]23[C@H](C)CC[C@@H]2[C@H](C)CO[C@]32Oc3cc(O)cc(CO)c3C=C12 here?
Its IC50 is 9.5 µM.

With CC(C)(O)[C@@H]1C[C@@H](O)[C@]2(C(=O)O)[C@H](CC[C@@]3(C)[C@H]2CC[C@H]2Cc4c([nH]c5ccccc45)[C@@]23C)O1 as the compound, how does the MIC [6] read?
Its MIC is 12.5 µg/mL (≈ 26.7 µM).

Which results are given for CC(C)=CCc1ccc2c3c([nH]c2c1)[C@@]1(C)[C@@H](CC[C@@]2(O)[C@@]45O[C@@H]4[C@H](O)[C@@H](C(C)(C)O)O[C@H]5CC[C@@]21C)C3?
MIC [7]: 25 µg/mL (≈ 47.9 µM); MIC [8]: 25 µg/mL (≈ 47.9 µM); MIC [9]: 25 µg/mL (≈ 47.9 µM); MIC [10]: 25 µg/mL (≈ 47.9 µM); MIC [11]: 25 µg/mL (≈ 47.9 µM); MIC [12]: 25 µg/mL (≈ 47.9 µM); MIC [13]: 25 µg/mL (≈ 47.9 µM)

For CC(C)(O)[C@H](O)CC[C@]1(C)[C@@H](O)CC[C@@]2(C)[C@H]1CC[C@H]1Cc3c([nH]c4ccccc34)[C@@]12C, which MIC [14] is on record?
The MIC was 6.3 µM (≈ 2.77 µg/mL).

What about the MIC [15] of the same compound?
Its MIC is 3.1 µM (≈ 1.36 µg/mL).

What about the MIC [16] of the same compound?
The MIC was 3.1 µM (≈ 1.36 µg/mL).
